Measured values taken from publication PMC12196291, “Absolute Configuration and Chiroptical Properties of Flexible Drug Avapritinib” (Pharmaceuticals, 2025).

Biological target: C-KIT (D816V) (Homo sapiens, UniProt P10721, D816V)
Experiment: in vitro kinase activity assay (substrate/ATP, 384-well, ELISA-BMG readout), positive control
Assay type: biochemical

Sequence of C-KIT (D816V) (P10721 546-976 D816V limits assumed): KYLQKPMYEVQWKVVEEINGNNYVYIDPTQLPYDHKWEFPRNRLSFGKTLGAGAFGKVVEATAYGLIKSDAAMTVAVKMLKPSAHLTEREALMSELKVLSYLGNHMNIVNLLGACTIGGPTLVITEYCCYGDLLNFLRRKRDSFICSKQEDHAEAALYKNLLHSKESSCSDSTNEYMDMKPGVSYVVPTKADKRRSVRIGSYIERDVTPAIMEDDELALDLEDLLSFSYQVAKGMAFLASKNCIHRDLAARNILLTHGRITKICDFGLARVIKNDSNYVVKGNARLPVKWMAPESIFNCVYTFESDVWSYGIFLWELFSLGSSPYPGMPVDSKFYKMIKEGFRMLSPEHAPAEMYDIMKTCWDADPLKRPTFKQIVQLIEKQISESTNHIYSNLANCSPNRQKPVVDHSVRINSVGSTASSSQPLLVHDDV

IC50: 26.9 ± 1.51 nM
SMILES: S=C(NCc1ccc2c(c1)OCO2)N1CCN(c2ncnc3c2oc2ccccc23)CC1 [Amuvatinib]
